These are literature values, as cited in patent publication US6472228B2, “Composition and methods for synthesis of novel tracers for detecting amphetamine and methamphetamine in samples” (Lifepoint, Inc., priority 2000, dated 2002).

The structures appear in SMILES notation.

For this data set the following is noted: GC/MASS.

As for `CN[C@@H](C)Cc1ccccc1` [methamphetamine], the “detectable in saliva samples after the last dose” value is “up to 2 days”.
